The target of one assay is Ba/F3-EGFR-WT cells (Homo sapiens, UniProt P00533). As to the kind of experiment: Ba/F3 cell survival assay, wild type EGFR. The conditions noted are these: Cell Titer-Glo, 48 h, with 10 ng/mL EGF; Table 4; read-out: BA/F3 (wild type) IC50. The format is cell-based.
A further assay deals with T1, Bub1 (Homo sapiens, UniProt O43683).
T1 construct: catalytic domain of human Bub1 (amino acids 704-1085); His6 (N); made in house; host or cells: insect cells (Hi5)
As to the kind of experiment: Bub1 high ATP kinase assay (TR-FRET). In kind it is biochemical. The conditions noted are these: Bub1 high ATP (2 mM) IC50, TR-FRET, 2 mM ATP; Table 3. A digest of the protocol: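 Read-out was the 665/620 nm TR-FRET ratio after 1 h at 22 °C with EDTA stop mix (streptavidin-XL665, anti-phosphoserine antibody, Eu anti-mouse IgG). Beforehand, a biotinylated peptide was phosphorylated for 60 min at 22 °C under high ATP by His6-tagged human Bub1 residues 704-1085 expressed in Hi5 cells, about 200 ng/ml.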

Assay [1] addresses T2, EGFR with insertion SVD between D770 and N771 (mutEGFR D770_N771insSVD) (Homo sapiens, UniProt P00533, DUP768-770).
T2 construct: amino acids R669 to A1210; made in house; host or cells: Sf9 insect cells (baculovirus)
Kind of assay: Exon20-Mutant-EGFR(D770_N771insSVD) kinase assay (TR-FRET). The format is biochemical. The conditions noted are these: 2 mM ATP, Table 2.

Assay [2] addresses Ba/F3-EGFR-D770_N771insSVD cells (Homo sapiens, UniProt P00533, DUP768-770, cells depend on it). As to the kind of experiment: Ba/F3 cell survival assay, EGFR D770_N771insSVD. The format is cell-based. The conditions noted are these: Cell Titer-Glo, 48 h, without IL-3; Table 4; read-out: BA/F3 (insSVD) IC50.

Where “and” joins values, the source holds several entries; their conditions need not be identical. Equal entries are not always repeated.

Chain of Ba/F3-EGFR-D770_N771insSVD cells (P00533 with tags, fused parts or gaps DUP768-770): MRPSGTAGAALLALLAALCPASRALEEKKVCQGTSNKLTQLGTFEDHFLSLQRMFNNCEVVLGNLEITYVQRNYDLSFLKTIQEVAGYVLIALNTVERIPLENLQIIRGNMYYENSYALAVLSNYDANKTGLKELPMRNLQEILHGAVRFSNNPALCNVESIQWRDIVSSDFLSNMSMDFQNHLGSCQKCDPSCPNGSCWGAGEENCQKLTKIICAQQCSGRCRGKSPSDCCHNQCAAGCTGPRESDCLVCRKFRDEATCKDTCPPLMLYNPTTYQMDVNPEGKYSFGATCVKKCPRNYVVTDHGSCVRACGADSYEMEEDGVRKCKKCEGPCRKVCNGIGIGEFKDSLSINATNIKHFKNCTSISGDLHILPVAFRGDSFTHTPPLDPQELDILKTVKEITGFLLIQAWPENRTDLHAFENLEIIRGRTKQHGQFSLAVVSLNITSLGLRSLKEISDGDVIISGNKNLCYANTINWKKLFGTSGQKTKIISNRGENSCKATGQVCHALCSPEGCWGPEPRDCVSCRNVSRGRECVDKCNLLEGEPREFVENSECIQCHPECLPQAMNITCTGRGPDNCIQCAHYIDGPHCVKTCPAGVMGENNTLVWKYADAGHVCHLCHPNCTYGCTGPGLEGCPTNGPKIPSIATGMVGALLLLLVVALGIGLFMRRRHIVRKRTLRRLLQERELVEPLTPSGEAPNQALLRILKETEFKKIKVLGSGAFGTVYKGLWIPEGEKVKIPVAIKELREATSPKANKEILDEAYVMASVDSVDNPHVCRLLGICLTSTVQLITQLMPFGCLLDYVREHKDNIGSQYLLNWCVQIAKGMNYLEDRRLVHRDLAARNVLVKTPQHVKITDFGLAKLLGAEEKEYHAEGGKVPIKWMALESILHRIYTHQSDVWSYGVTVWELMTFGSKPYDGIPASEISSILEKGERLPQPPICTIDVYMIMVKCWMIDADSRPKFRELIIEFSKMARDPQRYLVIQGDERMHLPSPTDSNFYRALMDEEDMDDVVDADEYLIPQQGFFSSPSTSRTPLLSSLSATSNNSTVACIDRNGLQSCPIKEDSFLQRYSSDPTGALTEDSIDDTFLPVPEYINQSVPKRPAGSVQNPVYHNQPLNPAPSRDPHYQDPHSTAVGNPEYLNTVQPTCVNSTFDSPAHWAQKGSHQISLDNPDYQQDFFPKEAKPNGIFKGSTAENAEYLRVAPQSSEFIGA
T2 sequence (P00533 other isoform, or with tags, fused parts or gaps DUP768-770): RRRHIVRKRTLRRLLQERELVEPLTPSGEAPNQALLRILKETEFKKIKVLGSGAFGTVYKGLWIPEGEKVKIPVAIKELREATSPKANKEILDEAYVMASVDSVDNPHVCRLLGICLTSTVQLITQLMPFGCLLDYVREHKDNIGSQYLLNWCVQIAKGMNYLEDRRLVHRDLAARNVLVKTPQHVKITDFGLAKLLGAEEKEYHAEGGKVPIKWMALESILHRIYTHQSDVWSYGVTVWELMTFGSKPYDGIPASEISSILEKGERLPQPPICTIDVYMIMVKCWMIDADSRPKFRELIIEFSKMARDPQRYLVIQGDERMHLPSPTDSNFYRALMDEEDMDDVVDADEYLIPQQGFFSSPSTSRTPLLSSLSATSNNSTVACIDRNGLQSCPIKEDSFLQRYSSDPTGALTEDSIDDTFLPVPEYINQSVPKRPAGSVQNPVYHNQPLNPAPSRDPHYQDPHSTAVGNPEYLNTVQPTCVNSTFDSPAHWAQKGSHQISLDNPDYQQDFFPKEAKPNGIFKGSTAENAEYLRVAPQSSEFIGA
Chain of Ba/F3-EGFR-WT cells (P00533 whole entry, looked up, change not shown): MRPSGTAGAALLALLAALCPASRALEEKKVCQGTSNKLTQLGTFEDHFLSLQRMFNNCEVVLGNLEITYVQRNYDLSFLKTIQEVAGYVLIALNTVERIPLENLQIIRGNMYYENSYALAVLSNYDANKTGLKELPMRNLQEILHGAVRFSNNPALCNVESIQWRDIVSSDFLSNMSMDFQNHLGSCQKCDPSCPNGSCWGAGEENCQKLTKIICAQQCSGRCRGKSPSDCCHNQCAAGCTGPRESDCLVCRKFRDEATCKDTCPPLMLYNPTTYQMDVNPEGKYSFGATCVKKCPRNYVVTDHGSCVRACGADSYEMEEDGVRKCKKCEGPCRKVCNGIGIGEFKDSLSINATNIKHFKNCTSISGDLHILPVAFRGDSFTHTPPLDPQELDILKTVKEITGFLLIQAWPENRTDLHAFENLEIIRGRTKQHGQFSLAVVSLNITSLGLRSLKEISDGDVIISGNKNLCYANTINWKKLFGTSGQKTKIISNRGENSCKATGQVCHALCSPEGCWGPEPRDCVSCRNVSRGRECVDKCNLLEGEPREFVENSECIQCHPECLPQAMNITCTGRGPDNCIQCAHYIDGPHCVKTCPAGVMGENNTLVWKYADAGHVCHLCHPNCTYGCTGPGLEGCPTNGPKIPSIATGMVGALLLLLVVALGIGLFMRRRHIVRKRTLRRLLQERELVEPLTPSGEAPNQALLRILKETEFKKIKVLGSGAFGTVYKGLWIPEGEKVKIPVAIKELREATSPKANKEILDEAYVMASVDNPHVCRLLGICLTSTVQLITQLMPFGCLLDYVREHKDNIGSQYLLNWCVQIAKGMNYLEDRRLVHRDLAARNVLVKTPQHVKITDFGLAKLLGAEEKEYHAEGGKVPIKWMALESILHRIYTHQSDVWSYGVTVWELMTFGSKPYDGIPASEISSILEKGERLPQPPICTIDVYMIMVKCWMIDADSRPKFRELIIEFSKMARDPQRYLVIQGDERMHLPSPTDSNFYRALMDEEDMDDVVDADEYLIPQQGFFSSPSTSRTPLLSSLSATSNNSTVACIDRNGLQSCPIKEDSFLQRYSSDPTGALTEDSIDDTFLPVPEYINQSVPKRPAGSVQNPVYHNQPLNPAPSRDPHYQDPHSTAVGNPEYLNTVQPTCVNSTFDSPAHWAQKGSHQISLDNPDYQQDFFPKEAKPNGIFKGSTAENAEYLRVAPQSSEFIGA
T1 sequence (O43683 704-1085): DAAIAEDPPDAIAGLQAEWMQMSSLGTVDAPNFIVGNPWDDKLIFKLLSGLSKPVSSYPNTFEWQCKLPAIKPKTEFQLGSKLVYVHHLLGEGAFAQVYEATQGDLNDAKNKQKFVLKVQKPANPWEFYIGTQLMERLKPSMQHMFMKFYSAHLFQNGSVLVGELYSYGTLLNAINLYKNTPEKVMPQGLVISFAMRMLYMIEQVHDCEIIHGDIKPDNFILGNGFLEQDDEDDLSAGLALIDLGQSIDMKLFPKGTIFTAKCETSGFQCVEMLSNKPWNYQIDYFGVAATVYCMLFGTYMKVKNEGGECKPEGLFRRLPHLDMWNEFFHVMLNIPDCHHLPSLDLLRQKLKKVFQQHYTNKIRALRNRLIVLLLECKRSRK

For the molecule `COc1c(Cl)cccc1Nc1c(-c2ccncc2OC[C@@H]2COCCN2C)[nH]c2c1C(=O)NCC2CCO` (single isomer, unassigned) [Example 116], the GI50 at Ba/F3-EGFR-WT cells is 2030 nM; in assay [2] it was 169 nM. Also, the IC50 at Bub1 turned out to be 13.7 µM. In addition, in assay [1], the “mutEGFR (D770_N771insSVD) kinase assay IC50” value (shortened to “mutEGFR”) is 276 pM.

In the case of `COc1c(Cl)cccc1Nc1c(-c2ccncc2OCC2CCCCO2)[nH]c2c1C(=O)N[C@H](C)C2` (single isomer, unassigned) [Example 29], the values for the GI50 (at Ba/F3-EGFR-WT cells; in assay [2]) were 288 nM and 11 nM, respectively. The molecule also registered an IC50 against Bub1 of 2.39 µM. For the same molecule, the “mutEGFR” value in assay [1] turned out to be 176 pM.

`COc1c(Cl)cccc1Nc1c(-c2ccncc2OCC2CCCCO2)[nH]c2c1C(=O)NCC2C` (single isomer, unassigned) [Example 46, 3-(3-chloro-2-methoxy-anilino)-7-methyl-2-[3-(tetrahydropyran-2-ylmethoxy)-4-pyridyl]-1,5,6,7-tetrahydropyrrolo[3,2-c]pyridin-4-one]: the GI50 was 2750 nM at Ba/F3-EGFR-WT cells and 125 nM in assay [2]. This molecule also showed an IC50 at Bub1 above 20 µM. Moreover, the “mutEGFR” value in assay [1] turned out to be 1170 pM.

Turning to `COc1c(Cl)cccc1Nc1c(-c2ccncc2OCC2CCCCN2C)[nH]c2c1C(=O)N[C@H](C)C2` (single isomer, unassigned) [Example 84], the results for the GI50 (on Ba/F3-EGFR-WT cells; in assay [2]) were 379 nM and 16.1 nM, respectively. Further, the IC50 against Bub1 was above 20 µM. The “mutEGFR” value in assay [1] was determined as 657 pM.

`COc1c(Cl)cccc1Nc1c(-c2ccncc2OCC2CCCCO2)[nH]c2c1C(=O)N[C@H](C)C2` (single isomer, unassigned) [Example 28]: the figures for the GI50 (on Ba/F3-EGFR-WT cells; in assay [2]) were 189 nM and 8.33 nM, respectively. In addition, the IC50 on Bub1 came out at 9.72 µM. Further, in assay [1], the “mutEGFR” value came out at 139 pM.

As to `COc1c(Cl)cccc1Nc1c(-c2ccncc2OC[C@@H]2COCCN2C)[nH]c2c1C(=O)NCC2CCF` (single isomer, unassigned) [Example 90], the GI50 on Ba/F3-EGFR-WT cells came out at 1170 nM; in assay [2] it was 83.8 nM. On Bub1, this molecule registered a concentration for half-maximal inhibition (IC50) of 3.88 µM. In addition, the “mutEGFR” value in assay [1] came out at 499 pM.

Regarding `COc1c(Cl)cccc1Nc1c(-c2ccncc2OCC2(C)CCO2)[nH]c2c1C(=O)NCC2CCO` (centres unmarked) [Example 19, 3-(3-chloro-2-methoxyanilino)-7-(2-hydroxyethyl)-2-{3-[(2-methyloxetan-2-yl)methoxy]pyridin-4-yl}-1,5,6,7-tetrahydro-4H-pyrrolo[3,2-c]pyridin-4-one], the GI50 came out at 684 nM at Ba/F3-EGFR-WT cells and 86.5 nM in assay [2]. For the same molecule, half-maximal inhibition against Bub1 (IC50) required 13.5 µM. Besides, in assay [1], the “mutEGFR” value was determined as 279 pM.

Regarding `COc1c(Cl)cccc1Nc1c(-c2ccncc2OCC2COCCO2)[nH]c2c1C(=O)N[C@H](C)C2` (single isomer, unassigned) [Example 26], the GI50 at Ba/F3-EGFR-WT cells worked out at 587 nM; in assay [2] it was 63.1 nM. Besides, at Bub1, it took 3.11 µM to reach half-maximal inhibition (IC50). The “mutEGFR” value in assay [1] is 242 pM.

Consider `COc1c(Cl)cccc1Nc1c(-c2ccncc2OCC2OCCCC2(F)F)[nH]c2c1C(=O)N[C@H](C)C2` (single isomer, unassigned) [Example 76], for which the GI50 on Ba/F3-EGFR-WT cells was 2440 nM; in assay [2], 177 nM. For the same molecule, the IC50 at Bub1 is above 5.7 µM. Besides, in assay [1], the “mutEGFR” value was determined as 240 pM.

Take `COc1c(Cl)cccc1Nc1c(-c2ccncc2OCC2COCCO2)[nH]c2c1C(=O)N[C@H](C)C2` (mixture of isomers) [Example 24, (6R)-3-(3-chloro-2-methoxy-anilino)-2-[3-(1,4-dioxan-2-ylmethoxy)-4-pyridyl]-6-methyl-1,5,6,7-tetrahydropyrrolo[3,2-c]pyridin-4-one]: the GI50 on Ba/F3-EGFR-WT cells amounted to 500 nM; in assay [2], 20.8 nM. On Bub1, this molecule yielded an IC50 of 3.48 µM. Besides, the “mutEGFR” value in assay [1] is 111 pM and <72.5 pM.

With `COc1c(Cl)cccc1Nc1c(-c2ccncc2OCC2COCCO2)[nH]c2c1C(=O)NC1(CCC1)C2` (single isomer, unassigned) [Example 124, 3-(3-chloro-2-methoxy-anilino)-2-[3-(1,4-dioxan-2-ylmethoxy)-4-pyridyl]spiro[5,7-dihydro-1H-pyrrolo[3,2-c]pyridine-6,1′-cyclobutane]-4-one], the GI50 at Ba/F3-EGFR-WT cells was determined as 513 nM; in assay [2], 26 nM. The molecule also yielded an IC50 against Bub1 of 0.479 µM. Besides, the “mutEGFR” value in assay [1] amounted to 315 pM.

Turning to `COc1c(Cl)cccc1Nc1c(-c2ccncc2OCC2COC(C)(C)CO2)[nH]c2c1C(=O)NC1(CC1)C2` (centres unmarked) [Example 132, 3′-(3-chloro-2-methoxyanilino)-2′-{3-[(5,5-dimethyl-1,4-dioxan-2-yl)methoxy]pyridin-4-yl}-1′,7′-dihydrospiro[cyclopropane-1,6′-pyrrolo[3,2-c]pyridin]-4′(5′H)-one], the GI50 came out at 986 nM on Ba/F3-EGFR-WT cells and 44.9 nM in assay [2]. Further, on Bub1, the IC50 is 1.48 µM. Also, the “mutEGFR” value in assay [1] amounted to 394 pM.

Turning to `COc1c(Cl)cccc1Nc1c(-c2ccncc2OCC2COCCO2)[nH]c2c1C(=O)NCC2C` (single isomer, unassigned) [Example 37, 3-(3-chloro-2-methoxy-anilino)-2-[3-(1,4-dioxan-2-ylmethoxy)-4-pyridyl]-7-methyl-1,5,6,7-tetrahydropyrrolo[3,2-c]pyridin-4-one], the figures for the GI50 (at Ba/F3-EGFR-WT cells; in assay [2]) were 1090 nM and 149 nM, respectively. The molecule also returned an IC50 on Bub1 of 2.87 µM. Further, the “mutEGFR” value in assay [1] was 318 pM.

With `Cc1c(Cl)cccc1Nc1c(-c2ccncc2OCC2COCCO2)[nH]c2c1C(=O)NCC2C` (single isomer, unassigned) [Example 68, 3-(3-chloro-2-methyl-anilino)-2-[3-(1,4-dioxan-2-ylmethoxy)-4-pyridyl]-7-methyl-1,5,6,7-tetrahydropyrrolo[3,2-c]pyridin-4-one], the results for the GI50 (on Ba/F3-EGFR-WT cells; in assay [2]) were 1380 nM and 63.7 nM, respectively. On Bub1, this molecule gave an IC50 of 5.13 µM. For the same molecule, in assay [1], the “mutEGFR” value was 300 pM.

For `Cc1c(Cl)cccc1Nc1c(-c2ccncc2OCC2COCCO2)[nH]c2c1C(=O)N[C@H](C)C2` (stereo partly drawn) [Example 102, (6R)-3-(3-chloro-2-methylanilino)-2-{3-[(1,4-dioxan-2-yl)methoxy]pyridin-4-yl}-6-methyl-1,5,6,7-tetrahydro-4H-pyrrolo[3,2-c]pyridin-4-one], the GI50 at Ba/F3-EGFR-WT cells came to 869 nM; in assay [2] it was 38.7 nM. This molecule also showed a 50% inhibitory concentration (IC50) against Bub1 of 1.03 µM. The “mutEGFR” value in assay [1] worked out at 121 pM.

In the case of `CCc1c(Cl)cccc1Nc1c(-c2ccncc2OC[C@@H]2CN(C)CCO2)[nH]c2c1C(=O)N[C@H](C)C2` [Example 91, (6R)-3-(3-chloro-2-ethylanilino)-6-methyl-2-(3-{[(2S)-4-methylmorpholin-2-yl]methoxy}pyridin-4-yl)-1,5,6,7-tetrahydro-4H-pyrrolo[3,2-c]pyridin-4-one], the GI50 came out at 556 nM on Ba/F3-EGFR-WT cells and 30.2 nM in assay [2]. The IC50 on Bub1 was above 20 µM. Moreover, the “mutEGFR” value in assay [1] is 334 pM.

In the case of `COc1c(Cl)cccc1Nc1c(-c2ccncc2OCC2CCCCN2C)[nH]c2c1C(=O)N[C@H](C)C2` (mixture of isomers) [Example 83, (6R)-3-(3-chloro-2-methoxy-anilino)-6-methyl-2-{3-[(1-methyl-2-piperidyl)methoxy]-4-pyridyl}-1,5,6,7-tetrahydropyrrolo[3,2-c]pyridin-4-one], the values for the GI50 (at Ba/F3-EGFR-WT cells; in assay [2]) were 669 nM and 24.6 nM, respectively. Besides, on Bub1, the IC50 was above 20 µM. Besides, the “mutEGFR” value in assay [1] came to 849 pM.

Take `COc1c(Cl)cccc1Nc1c(-c2ccncc2OCC2COC(C)(C)CO2)[nH]c2c1C(=O)N[C@H](C)C2` (single isomer, unassigned) [Example 79]: the GI50 amounted to 1910 nM at Ba/F3-EGFR-WT cells and 151 nM in assay [2]. The IC50 at Bub1 is 17.3 µM and > 20 µM. Also, the “mutEGFR” value in assay [1] was 455 pM.

Consider `COc1c(Cl)cccc1Nc1c(-c2ccncc2OC[C@@H]2CCCO2)[nH]c2c1C(=O)N[C@H](C)C2` (single isomer, unassigned) [Example 5], for which the GI50 was 331 nM at Ba/F3-EGFR-WT cells and 20.2 nM in assay [2]. In addition, the IC50 at Bub1 was 9.7 µM. Moreover, the “mutEGFR” value in assay [1] stood at 125 pM.

For the molecule `COc1c(Cl)cccc1Nc1c(-c2ccncc2OC[C@@H]2CCCCO2)[nH]c2c1C(=O)NC1(CCC1)C2` [Example 127, 3′-(3-chloro-2-methoxyanilino)-2′-(3-{[(2S)-oxan-2-yl]methoxy}pyridin-4-yl)-1′,7′-dihydrospiro[cyclobutane-1,6′-pyrrolo[3,2-c]pyridin]-4′(5′H)-one], the GI50 at Ba/F3-EGFR-WT cells came to 406 nM; in assay [2], 12.1 nM. The IC50 on Bub1 stood at 1.44 µM. For the same molecule, the “mutEGFR” value in assay [1] worked out at 510 pM.
